What was measured:
[1] = imidazoquinolines such as 3M-052; reference (9); cited from earlier work
human TLR8 = target: T1, human TLR8 (Homo sapiens, UniProt Q9NR97); conditions: in vitro; reference (5); cited from earlier work
T1 sequence (Q9NR97 27-1041): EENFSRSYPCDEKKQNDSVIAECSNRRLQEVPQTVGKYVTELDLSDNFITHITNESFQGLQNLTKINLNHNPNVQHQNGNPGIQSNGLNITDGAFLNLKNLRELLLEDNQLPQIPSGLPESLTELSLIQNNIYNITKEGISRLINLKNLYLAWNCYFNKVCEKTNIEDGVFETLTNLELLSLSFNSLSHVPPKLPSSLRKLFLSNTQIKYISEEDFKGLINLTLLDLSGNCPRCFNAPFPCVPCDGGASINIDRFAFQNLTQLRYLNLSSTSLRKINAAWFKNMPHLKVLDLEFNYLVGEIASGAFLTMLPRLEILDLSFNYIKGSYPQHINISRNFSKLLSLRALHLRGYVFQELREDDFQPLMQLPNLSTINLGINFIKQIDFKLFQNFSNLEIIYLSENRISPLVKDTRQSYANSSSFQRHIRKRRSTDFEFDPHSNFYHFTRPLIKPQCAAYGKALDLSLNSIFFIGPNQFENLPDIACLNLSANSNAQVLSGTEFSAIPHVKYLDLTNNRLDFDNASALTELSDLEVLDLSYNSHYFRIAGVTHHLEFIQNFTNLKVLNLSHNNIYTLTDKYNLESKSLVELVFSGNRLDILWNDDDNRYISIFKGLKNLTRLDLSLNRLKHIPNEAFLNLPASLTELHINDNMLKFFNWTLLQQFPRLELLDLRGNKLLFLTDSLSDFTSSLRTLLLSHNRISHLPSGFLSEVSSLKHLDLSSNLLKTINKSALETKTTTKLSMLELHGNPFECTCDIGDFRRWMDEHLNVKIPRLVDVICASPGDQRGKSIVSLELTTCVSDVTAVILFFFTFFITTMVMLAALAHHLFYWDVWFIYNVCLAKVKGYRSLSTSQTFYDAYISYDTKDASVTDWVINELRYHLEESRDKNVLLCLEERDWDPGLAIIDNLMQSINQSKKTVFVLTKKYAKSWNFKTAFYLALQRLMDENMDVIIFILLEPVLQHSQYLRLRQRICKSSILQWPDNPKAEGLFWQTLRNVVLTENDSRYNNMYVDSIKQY

human TLR7 = target: T2, human TLR7 (Homo sapiens, UniProt Q9NYK1); conditions: in vitro; reference (5); cited from earlier work
T2 sequence (Q9NYK1 27-1049): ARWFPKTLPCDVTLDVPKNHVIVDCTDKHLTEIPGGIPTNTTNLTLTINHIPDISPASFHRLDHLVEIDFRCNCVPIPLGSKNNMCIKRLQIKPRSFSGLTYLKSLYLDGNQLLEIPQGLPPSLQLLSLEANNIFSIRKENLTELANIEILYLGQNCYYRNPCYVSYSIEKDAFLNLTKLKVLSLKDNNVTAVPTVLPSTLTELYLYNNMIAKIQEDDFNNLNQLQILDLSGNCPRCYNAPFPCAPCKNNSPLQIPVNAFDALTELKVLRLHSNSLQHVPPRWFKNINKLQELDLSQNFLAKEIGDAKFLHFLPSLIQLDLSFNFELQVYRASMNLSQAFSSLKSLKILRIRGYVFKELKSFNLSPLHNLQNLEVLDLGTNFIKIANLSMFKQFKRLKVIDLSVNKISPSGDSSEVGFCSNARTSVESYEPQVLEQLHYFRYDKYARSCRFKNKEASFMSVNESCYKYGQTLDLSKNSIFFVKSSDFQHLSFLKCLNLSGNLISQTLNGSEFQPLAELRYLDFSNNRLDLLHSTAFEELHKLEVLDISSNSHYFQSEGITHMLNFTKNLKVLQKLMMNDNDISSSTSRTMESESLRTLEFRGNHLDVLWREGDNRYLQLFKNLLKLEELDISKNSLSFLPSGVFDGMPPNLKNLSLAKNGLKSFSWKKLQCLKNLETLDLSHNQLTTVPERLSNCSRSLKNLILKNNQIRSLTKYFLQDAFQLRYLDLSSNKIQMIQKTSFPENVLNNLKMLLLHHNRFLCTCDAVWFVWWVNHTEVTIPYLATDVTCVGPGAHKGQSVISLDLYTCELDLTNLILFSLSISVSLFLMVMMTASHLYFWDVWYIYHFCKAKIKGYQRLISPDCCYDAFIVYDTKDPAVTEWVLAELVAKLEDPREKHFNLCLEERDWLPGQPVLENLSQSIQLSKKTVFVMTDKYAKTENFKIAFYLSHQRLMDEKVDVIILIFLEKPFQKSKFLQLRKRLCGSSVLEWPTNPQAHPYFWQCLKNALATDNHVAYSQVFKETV

[2] = Adsorption to Alhydrogel® (aluminum oxyhydroxide): unbound material assayed in centrifuged supernatant; assay type: physicochemical; conditions: for TLR Agonist Conc. In Supernatant (T = 16 wks): storage at 5° C.; for TLR Agonist Conc. In Supernatant (T = 16 wks) / TLR Agonist Conc. In Supernatant (T = 0): the ligand itself, in combinations first value = 3M-052
Protocol: Adjuvant formulation characterization and stability. Aqueous nanosuspensions were characterized for particle size by dynamic light scattering (DLS) using the Malvern Instruments (Worcestershire, UK) Zetasizer Nano-S or —ZS. Aqueous nanosuspensions were diluted 1:10 or 1:100 fold in water in a polystyrene cuvette prior to analysis, which consisted of three measurements resulting in a scattering intensity-biased average diameter value reported as the Z-ave. Zeta potential was measured using the Zetasizer Nano-ZS using a disposable capillary cell, with nine consecutive measurements collected from each sample prepared at 1:10 dilution in water. In general, 3M-052 concentration was measured by UV absorbance at 322.5 nm after diluting formulations 1:20 into ethanol:HCl (98:2 v:v) and comparing to a standard curve. The dilution into organic solvent removes potential interference from light scattering of the nanosuspension particles. However, for the 3M-052 binding isotherm, where maximum sensitivity was desired, no dilution was performed for the samples or the standards. Alternatively, 3M-052 concentration was determined by reverse phase HPLC with charged aerosol detection. TLR9 CpG control concentration was measured by UV absorbance at 260 nm after 1:20 dilution into ethanol:HCl. GLA concentration was measured by reverse-phase HPLC with an C18 column (Atlantis T3 or Agilent XBridge) and charged aerosol detection (CAD) using a methanol:chloroform:water mobile gradient as described previously (6). To detect unbound TLR ligand, alum-containing formulations were centrifuged briefly as indicated and the supernatant assayed by UV absorbance or HPLC-CAD. Depending on experiment, centrifugation time was 2-5 min at 2,000-16,000×g. In some experiments (FIG. 2D and Table 4), to remove the influence of saline or buffer salts on the sedimentation of TLR agonists in aluminum salt preparations, aluminum salts were first centrifuged and the supernatants removed and replaced with water; this process was repeated for another wash prior to employing the aluminum salts in the binding studies.
Antigen adsorption to aluminum salts. Binding efficiency of 3M-052 and ID93 or HIV gp120 antigen to Alhydrogel® and AdjuPhos® was determined by UV-Vis Spectroscopy and SDS-PAGE with silver stain. 1-mL of formulation was prepared by mixing saline diluent, antigen, 3M-052-AF, and/or aluminum salt. To determine HIV gp120 antigen adsorption, 30 μl of sample supernatant was mixed with 10 μl of 4× reducing or non-reducing LDS Sample Buffer, following which 20-25 μl was loaded into a 10-lane SDS-PAGE gel with 15 μl of SeeBlue2 Prestained Standard. To determine ID93 adsorption, 45 μl of sample supernatant was mixed with 15 μl of 4× reducing LDS Sample Buffer, following which 25 μl was loaded into a 10-lane SDS-PAGE gel with 15 μl of SeeBlue2 Prestained Standard. The gels were run for 55 minutes at 190 V and then placed into a fixing solution of 50:40:10 EtOH:CH3COOH:H2O for overnight. […]
To determine the adsorption capacity of Alhydrogel® for 3M-052-AF, the nanosuspension at various concentrations was mixed with aluminum oxyhydroxide and allowed to sit for ˜30 min with intermittent vortexing, followed by centrifugation such that the aluminum particles pelleted. […] The adsorption stability of 3M-052-AF on Alhydrogel® over time was evaluated by assaying samples for unbound 3M-052 before and after storage at 5° C. for 16 wks. […]

effect of other TLR ligands on adsorption of 3M-052 to aluminum oxyhydroxide ([2]; co-adsorbed GLA or TLR9 CpG control (Table 2)): did not appear to interfere | TLR Agonist Conc. In Supernatant (T = 16 wks) ([2]; no aluminum salt (control)): 74 ± 1 µg/mL | TLR Agonist Conc. In Supernatant (T = 0) ([2]; no aluminum salt (control)): 94 ± 1 µg/mL | TLR Agonist Conc. In Supernatant (T = 16 wks) ([2]; with Alhydrogel®): 10 ± 1 µg/mL | TLR Agonist Conc. In Supernatant (T = 0) ([2]; with Alhydrogel®): 11 ± 1 µg/mL
SMILES: CCCCCCCCCCCCCCCCCC(=O)NCCCCOn1c(CCCC)nc2c(N)nc3ccccc3c21 [3M-052, N-(4-{[4-amino-2-butyl-1H-imidazo[4,5-c]quinolin-1-yl]oxy}butyl)octadecanamide]
pKa [1]: ~7 | activation of human TLR8 (human TLR8): activates | activation of human TLR7 (human TLR7): activates
